Test results reported in US9856511B2, “Protease deubiquitinating inhibitor screening” (priority 2011, dated 2018).

Columns and labels:
[1] = system: isogenic clones of HCT116 colon cancer cells; assay: Apoptosis in isogenic HCT116 clones, caspase cleaved cytokeratin-18 ELISA; format: cell-based
Experimental: The increase in sub G1 DNA content is associated with (i) activation of the apoptosis mediator caspase-3 and (ii) with cleavage of the caspase substrates poly-ADP ribose polymerase (PARP) and cytokeratin-18. […] Apoptosis induction by bortezomib is dependent on p53 and inhibited by overexpression of the Bcl-2 protein (16,17).
For determination of apoptosis parental HCT-116 p53+/+ cells were treated with the increasing doses of bortezomib or b-AP15 for 24 h. […] HCT-116 cells were seeded in 96-well microtiter plates at 10,000 cells per well and incubated overnight. Cells were treated with indicated drug for 24 h. At the end of the incubation period, NP40 was added to the tissue culture medium to 0.1% and 25 μl of the content of each well was assayed using the M30-Apoptosense® ELISA as previously described (43). Cell viability was determined by measuring acid phosphatase activity or using the FMCA method (44). For the acid phosphatase activity cells were seeded at 5000 cells per well in 96-well culture plates and incubated for 12 h at 37° C. Compounds were added to the cells in growth media and incubated for 72 h at 37° C. Cells were washed with 200 μl warm PBS. […] Absorbance was measured at 405 nm.
b-AP15 inhibits degradation of ubiquitin-tagged YFP in a proteasome reporter cell line (FIG. 1a). Levels of ^UbG76V-YFP accumulation were determined by flow cytometry and immunoblotting; immunoblot of ubiquitin conjugation in HCT-116 cells treated with b-AP15 (1 μM) or bortezomib (100 nM) (FIG. 1b). […] Immunoblot of ODC-1 levels in HCT-116 cells following treatment with bortezomib ([…] or b-Ap15 (1 μM) (FIG. 1d); values represent quantified optical density units of ODC-1 normalized to β-actin. Cell cycle profiles of b-AP15 treated HCT-116 cells (FIG. 1e); cells were analyzed by propidium iodide staining and flow cytometry. Levels of caspase activity in isogenic HCT-116 cells as determined by ELISA for caspase cleaved cytokeratin-18 (CK18-Asp398) following treatment with bortezomib (100 nM) or b-AP15 (1 μM) (**′P=0.01, ***′P=0.001) (FIG. 1f). […]

HCT116 cells = format: cell-based; conditions: human
Source text: These findings indicate that high molecular weight ubiquitin substrate complexes accumulating as a result of DUB inhibition can generate strong cytotoxicity that is insensitive to Bcl-2 over-expression. [table]

## CC(C)C[C@H](NC(=O)[C@H](Cc1ccccc1)NC(=O)c1cnccn1)B(O)O [bortezomib]
[1]
  apoptosis: effect of genetic disruption of BAX or PUMA: bortezomib-induced apoptosis is inhibited
HCT116 cells
  Fold induction DNAJB1 (Hsp40B1) mRNA: 5 fold
  Fold induction HSPA1B mRNA: 12 fold
  Fold induction HSPA6 (Hsp70B′) mRNA: 60 fold
